Data: PMC10692721, “Drug discovery for heart failure targeting myosin-binding protein C” (The Journal of Biological Chemistry, 2023)
*1 amine or outer side, *2 acyl side, *3 side chain or, on linkers, in order; H or OH if unused. Where a SMILES comes first, the peptide text is derived from it. Bridges are numbered along the chain shown (N, C = ends). [ ]: non-standard residue; d: D form. The star is where a group is joined. Orn(4R-OH,5R-OH) = O=C([C@H](C[C@@H](O)[C@@H](O)N[*:3])N[*:1])[*:2]; Tetradecanoyl(10R,12S-Me2) = CC[C@H](C)C[C@H](C)CCCCCCCCC(=O)*; hTyr(3S-OH,4S-OH) = N[C@H](C(=O)O)[C@H](O)[C@@H](O)c1ccc(O)cc1; Gln(3R-OH) = NC(=O)C[C@@H](O)[C@H](N)C(=O)O; Pro(3S-OH) = O=C(O)[C@H]1NCC[C@@H]1O; Hyp = O=C(O)[C@@H]1C[C@@H](O)CN1

Legend:
[1] = tested on: bovine cardiac (left ventricular) myofibrils; experiment: Cardiac myofibril ATPase assay; format: biochemical; conditions: 50 μM compound, pCa 8 to pCa 4
Experimental: Rabbit psoas and bovine cardiac myofibrils were prepared as described in our previous study ([17]). An enzyme-coupled, NADH-linked ATPase assay was used to measure skeletal and cardiac myofibril ATPase activity in 96-well microplates at 23 °C. Ionic strength was maintained below 0.2 M, so myofilaments remained insoluble and stable ([32]). To achieve optimal enzymatic activities, buffers for skeletal and cardiac myofibrils differed slightly ([33], [34]): skeletal in 50 mM MOPS, 100 mM KCl, 5 mM MgCl2, 1 mM EGTA, pH 7.0; cardiac in 20 mM MOPS, 35 mM NaCl, 5 mM MgCl2, 1 mM EGTA, pH 7.0. Each well in the microplate contained an assay mix of 0.84 mM phosphoenolpyruvate, 0.17 mM NADH, 10 U/vol pyruvate kinase, 20 U/vol lactate dehydrogenase. The concentration of free Ca^2+ was controlled by EGTA buffering ([35]). Myofibrils were dispensed in microplates with a multichannel pipette and were incubated with assay mix plus compound of interest for 20 min at 23 °C. The concentration of myofibrils used was 0.01 mg/ml for skeletal and 0.05 mg/ml for cardiac myofibrils. The assay was started upon the addition of ATP, at a final concentration of 2.1 mM (total volume to 200 μl), and absorbance was recorded at 340 nm in a SpectraMax Plus microplate spectrophotometer from Molecular Devices. The steady-state myofibrillar ATPase rate was measured from NADH oxidation, measured as the rate of decrease in absorption at 340 nm for 30 min, with absorption data collected every 15 s. All data and statistical analysis of steady-state kinetics were conducted with the OriginPro program. The results were fitted with the Hill equation:(6) […] is the ATPase rate and n is the Hill coefficient. ATPase activity is reported on the μmol ATP/mg protein/min scale. Average data are presented as mean ± SD. Sample means are derived from three different myofibril preps (N = 3), each done in duplicate (n = 6). The effects of compounds on ATPase activity of myofibrils were determined in the presence of 50 μM compound, across a 12-point pCa range from 4.0 (activation) to 8.0 (relaxation). The calcium sensitivity (pCa50) was determined by fitting the curves to the Hill equation. […] The normalized ATPase activity of the selected compounds can be found in Figure 6.

[2] = tested on: TMR-cC0-C2 (C0-C2 fragment of human cMyBP-C); experiment: FLT-TMR concentration-response assay (FLT of TMR on cC0-C2, no actin); format: binding; conditions: 60 μM compound
Outline: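 Hits tested at eight concentrations (0.5–100 μM) and read on a high-throughput fluorescence lifetime plate reader. Hill fits applied only under certain conditions.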

SMILES: CC[C@H](C)C[C@H](C)CCCCCCCCC(=O)N[C@H]1C[C@@H](O)[C@@H](O)NC(=O)[C@@H]2[C@@H](O)CCN2C(=O)[C@H]([C@H](O)CC(N)=O)NC(=O)[C@H]([C@H](O)[C@@H](O)c2ccc(O)cc2)NC(=O)[C@@H]2C[C@@H](O)CN2C(=O)[C@H]([C@@H](C)O)NC1=O [Pneumocandin B0] ({Tetradecanoyl(10R,12S-Me2)}-[Orn(4R-OH,5R-OH)]T[Hyp][hTyr(3S-OH,4S-OH)][Gln(3R-OH)][Pro(3S-OH)]; lactam 1-C)
- effect on cardiac MF ATPase activity (in words) [1]: ATPase-activating effect
- cC0-C2/cC0-C2#P (ratio of FLT changes) [2]: 0.9
- cC0-C2 FLT change (% change from DMSO, FLT of TMR-MyBP-C) [2]: 12.4%
